Where no end group is shown, it is not given here.
Columns and labels:
PSMA Fab = experiment: Phage binding ELISA, PSMA Fab, with or without PSMA antigen (peptide-179 and peptide-180 libraries); settings: peptide-180 library clonal phage; background (no Fab)
Protocol: (§1) Once the phage optimization libraries were completed, phage libraries were bio-panned using PSMA Fab loaded beads. Multiple rounds of panning were performed where bacteriophage was allowed to bind to PSMA Fab loaded beads. washed. eluted, and amplified. After panning, phage infected bacteria were plated out and colonies picked into 96 well blocks. Clonal phage was then amplified and separated from bacterial cells via centrifugation. Phage containing supemnatants were tested in binding ELISAs against PSMA Fab coated plates in the presence or absence of saturating concentrations of PSMA antigen. Phage able to bind PSMA Fab were selected for sequence analysis if the binding signal was reduced in the presence of PSMA.
(§2) Clonal phage were harvested as crude supernatants and screened via standard ELISAs. Briefly, biotinylated PSMA Fab was captured on neutravidin coated plates. Prior to the addition of clonal phage. wells were incubated with blocking buffer and PSMA antigen or blocking buffer alone. Without washing or aspirating, clonal phage supernatants were then added to the wells and incubated for a short time. Wells were then washed followed by detection of bound phage using a horse radish conjugated anti-M13 antibody. Clonal phage of interest were then sent for sequence analysis.
as §1, with “beads, washed,” for “beads. washed.”, “supernatants” for “supemnatants”

anti-CD28 scFv = experiment: Panning ELISA of clonal phage, anti-CD28 scFv, with or without CD28 soluble protein (Peptide-9 library); assay type: binding; settings: background (no anti-CD28 scFv)
Protocol: as §2, with “enzyme linked immunosorbent assays (ELISAs). […]” for “ELISAs. Briefly, biotinylated PSMA Fab was captured on neutravidin coated plates.”, “phage,” for “phage.”, “CD28 soluble protein” for “PSMA antigen”, “radish peroxidase” for “radish”

Sequence of PSMA Fab (as listed by the source): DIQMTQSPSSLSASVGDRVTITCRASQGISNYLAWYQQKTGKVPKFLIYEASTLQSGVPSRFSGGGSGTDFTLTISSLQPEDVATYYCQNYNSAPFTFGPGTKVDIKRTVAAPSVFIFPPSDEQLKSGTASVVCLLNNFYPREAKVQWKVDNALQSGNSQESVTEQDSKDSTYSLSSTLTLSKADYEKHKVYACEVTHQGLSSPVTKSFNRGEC
Sequence of PSMA Fab (as listed by the source): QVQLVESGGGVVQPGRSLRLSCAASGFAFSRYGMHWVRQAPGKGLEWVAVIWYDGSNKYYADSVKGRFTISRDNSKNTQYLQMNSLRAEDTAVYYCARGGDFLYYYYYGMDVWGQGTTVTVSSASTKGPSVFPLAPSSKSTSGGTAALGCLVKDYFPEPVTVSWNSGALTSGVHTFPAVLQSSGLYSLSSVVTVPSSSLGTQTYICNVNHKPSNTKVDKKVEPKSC
Sequence of anti-CD28 scFv (as listed by the source): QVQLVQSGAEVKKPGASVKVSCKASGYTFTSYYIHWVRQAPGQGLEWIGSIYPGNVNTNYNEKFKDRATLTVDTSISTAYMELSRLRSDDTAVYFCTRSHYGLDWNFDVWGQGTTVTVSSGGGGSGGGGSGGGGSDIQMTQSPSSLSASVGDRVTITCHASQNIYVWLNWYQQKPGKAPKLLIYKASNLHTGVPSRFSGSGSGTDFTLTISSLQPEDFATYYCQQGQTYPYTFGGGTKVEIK

Substance | Phage binding ELISA Background signal (PSMA Fab) | also measured
Phage-2811 (VPKWCTPSWMCEFT) | 0.0593 | –
Phage-2857 (LERACVPSWMCTGF; not fully specified; cysteine pairing not given here) | 0.0649 | –
Phage-2803 (VKHVCMPEWMCYWS) | 0.0652 | –
Phage-2793 (VTNWCTPPWMCEML) | 0.0676 | –
Phage-2813 (FSKLCTPPWMCSVS) | 0.0586 | –
Phage-2859 (WEFVCKPEWMCTGF; not fully specified; cysteine pairing not given here) | 0.0551 | –
Phage-2817 (EAKWCTPPWMCSLV) | 0.0615 | –
Phage-2860 (EWILCKPAWMCDGL; not fully specified; cysteine pairing not given here) | 0.051 | –
Phage-2805 (MMHWCTPPWMCEFS) | 0.0597 | –
Phage-2808 (MEKWCTPRWMCVGM) | 0.0767 | –
Phage-2797 (ERIWCTPKWMCETF) | 0.0696 | –
Phage-2804 (EGKWCTPTWMCQGF) | 0.0669 | –
Phage-2862 (TGAYCVPQWMCSGF; not fully specified; cysteine pairing not given here) | 0.0638 | –
Phage-2794 (TEKWCIPQWMCVRT) | 0.056 | –
Phage-2866 (TSPACVPSWMCVGF) | 0.0552 | –
Phage-2788 (SVKWCTPSWMCTEW) | 0.0817 | –
Phage-2846 (WEVRCVPEWMCVGF; not fully specified; cysteine pairing not given here) | 0.0615 | –
Phage-2839 (DSHWCMPVWMCMGL; not fully specified; cysteine pairing not given here) | 0.0737 | –
Phage-2856 (VQRMCEPSWMCFGF; not fully specified; cysteine pairing not given here) | 0.0631 | –
Phage-2800 (DYKWCTPPWMCDSR) | 0.0795 | –
Phage-2798 (HFKWCIPPWMCLEI) | 0.0798 | –

Substance | Phage binding ELISA Background signal (PSMA Fab) | also measured
Phage-2844 (VVAMCKPAWMCAGL; not fully specified; cysteine pairing not given here) | 0.0591 | –
Phage-2865 (MSPLCKPVWMCAGF) | 0.0586 | –
Phage-2810 (MDIWCKPRWMCEEY) | 0.0644 | –
Phage-2792 (TQHWCTPIWMCEGL) | 0.0865 | –
Phage-2869 (WPQLCVPMWMCAGL) | 0.1456 | –
Phage-2812 (VGPWCIPDWMCDVV) | 0.0572 | –
Phage-2814 (PMKWCTPPWMCSYS) | 0.0793 | –
Phage-2845 (WDMLCRPAWMCEGF; not fully specified; cysteine pairing not given here) | 0.0711 | –
Phage-2837 (VDRWCTPPWMCDWQ; cysteine pairing not given here; also: large carrier left off) | 0.0583 | –
Phage-2789 (VGKWCTPEWMCSGF) | 0.058 | –
Phage-2868 (EPIRCVPQWMCVGF) | 0.0882 | –
Phage-2787 (LWKSCTPEWMCAEW) | 0.0888 | –
Phage-2847 (WMPRCVPEWMCAGF; not fully specified; cysteine pairing not given here) | 0.1667 | –
Phage-2791 (WEKWCTPSWMCSGI) | 0.0564 | –
Phage-2790 (VMKWCTPSWMCAEA) | 0.067 | –
Phage-2854 (VHIMCKPAWMCLGF; not fully specified; cysteine pairing not given here) | 0.0917 | –
Phage-2796 (LNNWCTPAWMCVGY) | 0.0697 | –
Phage-2807 (WENWCIPQWMCGTA) | 0.1629 | –
Phage-2795 (FEKWCTPQWMCNSM) | 0.0569 | –
Phage-2801 (SDNWCKPEWMCVGH) | 0.0738 | –
Phage-2853 (MLPLCVPAWMCSGF; not fully specified; cysteine pairing not given here) | 0.061 | –

Substance | Phage binding ELISA Background signal (PSMA Fab) | also measured
Phage-2840 (EPQWCIPKWMCDHM; not fully specified; cysteine pairing not given here) | 0.0612 | –
Phage-2835 (VAKLCTPAWMCSAM; not fully specified; cysteine pairing not given here) | 0.0643 | –
Phage-2799 (ESKWCVPTWMCAEN) | 0.0516 | –
Phage-2852 (VMPLCKPAWMCGGF; not fully specified; cysteine pairing not given here) | 0.0869 | –
Phage-2851 (DMRLCVPEWMCLGL; not fully specified; cysteine pairing not given here) | 0.0889 | –
Phage-2850 (VNIRCEPAWMCMGF; not fully specified; cysteine pairing not given here) | 0.0727 | –
Phage-2836 (DWKLCKPTWMCESL; not fully specified; cysteine pairing not given here) | 0.0582 | –
Phage-2838 (HPKLCTPEWMCVIQ; not fully specified; cysteine pairing not given here) | 0.0666 | –
Phage-2858 (TQAMCKPAWMCQGF; not fully specified; cysteine pairing not given here) | 0.0585 | –
Phage-2806 (GATWCTPTWMCTGF) | 0.0609 | –
Phage-2809 (VTKLCIPEWMCVIQ) | 0.0543 | –
Phage-2855 (WEMKCIPEWMCRGF; cysteine pairing not given here; also: large carriers left off) | 0.0794 | –
Phage-403 (MSWCPWDMWNECFA) | – | Background signal (anti-CD28 scFv; Peptide-9 library): 0.069
Phage-448 (MAWCPWASFDECLA) | – | Background signal (anti-CD28 scFv; Peptide-9 library): 0.104
Phage-46 (MHWCPIDLWAECYA; not fully specified; cysteine pairing not given here) | – | Background signal (anti-CD28 scFv; Peptide-9 library): 0.082
Phage-93 (MDWCPRYLWTVCFS) | – | Background signal (anti-CD28 scFv; Peptide-9 library): 0.115
Phage-132 (MDWCPTYLWFECFN) | – | Background signal (anti-CD28 scFv; Peptide-9 library): 0.205
Phage-343 (MDWCPRDLWTQCFF) | – | Background signal (anti-CD28 scFv): 0.065
Phage-117 (MDWCPRYLWFECFS) | – | Background signal (anti-CD28 scFv; Peptide-9 library): 0.079
Phage-60 (MDWCPRTLWYLCFN; left off: large carriers) | – | Background signal (anti-CD28 scFv; Peptide-9 library): 0.508
Phage-445 (MDWCPRARWHDCFF) | – | Background signal (anti-CD28 scFv; Peptide-9 library): 0.097

Substance | Phage binding ELISA Background signal (PSMA Fab) | also measured
Phage-280 (MDWCPRYLWDYCFA) | – | Background signal (anti-CD28 scFv): 0.073
Phage-383 (LAGCQRDLATVCVI) | – | Background signal (anti-CD28 scFv): 0.068
Phage-436 (MDWCPRDRWADCFN) | – | Background signal (anti-CD28 scFv; Peptide-9 library): 0.063
Phage-422 (MYWCPINMWDYCYA) | – | Background signal (anti-CD28 scFv; Peptide-9 library): 0.122
Phage-433 (MAWCPWAQFDECLA) | – | Background signal (anti-CD28 scFv; Peptide-9 library): 0.073
Phage-377 (MDWCPFDLWLECFN) | – | Background signal (anti-CD28 scFv): 0.087
Phage-378 (MHWCPLHLWNECFA) | – | Background signal (anti-CD28 scFv): 0.065
Phage-346 (MDWCPRHLWHACFS) | – | Background signal (anti-CD28 scFv): 0.073
Phage-111 (MDWCPFYLWNECFY) | – | Background signal (anti-CD28 scFv; Peptide-9 library): 0.099
Phage-363 (MNWCPMHLWAECFN) | – | Background signal (anti-CD28 scFv): 0.087
Phage-344 (MDWCPRHLWVHCFS) | – | Background signal (anti-CD28 scFv): 0.096
Phage-276 (IDWCPKIHWDLCYF; not fully specified; cysteine pairing not given here) | – | Background signal (anti-CD28 scFv): 0.072
Phage-370 (MTWCPAYLWHECFN) | – | Background signal (anti-CD28 scFv): 0.086
Phage-410 (IDWCPRYMWHECFF) | – | Background signal (anti-CD28 scFv; Peptide-9 library): 0.098
Phage-39 (MDWCPMHLWHQCFN; not fully specified; cysteine pairing not given here) | – | Background signal (anti-CD28 scFv; Peptide-9 library): 0.073
Phage-443 (MDWCPMTRWNDCYF) | – | Background signal (anti-CD28 scFv; Peptide-9 library): 0.081
Phage-112 (MHWCPRALWDVCYN) | – | Background signal (anti-CD28 scFv; Peptide-9 library): 0.077
Phage-337 (MDWCPKPLWHVCFA) | – | Background signal (anti-CD28 scFv): 0.069
Phage-326 (MFWCPITLWNECFN) | – | Background signal (anti-CD28 scFv): 0.075
